Earlier results on one compound are cited in US20250161335A1, “Drug and Method for Nucleoside (Acid) Drug Therapy of Limiting Chronic Hepatitis B” (Shanghai Hep Pharmaceutical Co., Ltd., priority 2022, published 2025).

The subject of the data set is HBV. Conditions: patients treated with nucleoside (acid) medicine.

Consider `C[C@H](Cn1cnc2c(N)ncnc21)OCP(=O)(O)O` [tenofovir], for which the “inhibition rate on viral DNA” value is listed as “about 70%”.
